Where “and” joins values, the source holds several entries; their conditions need not be identical. Equal entries are not always repeated. ± gives the expanded uncertainty stated by the source.
Settings: 101.33 kPa, Liquid, Alternating current cell with electrodes

With CCn1cc[n+](C)c1.O=S(=O)([N-]S(=O)(=O)C(F)(F)F)C(F)(F)F the electrical conductivity (288.16 K) was 0.644 S/m and 0.645 S/m, the electrical conductivity (293.12 K) was 0.768 ± 0.031 S/m and the electrical conductivity (298.08 K) was 0.905 ± 0.036 S/m. For the same compound, the electrical conductivity (303.15 K) was 1.06 ± 0.043 S/m, the electrical conductivity (308.11 K) was 1.22 ± 0.049 S/m and the electrical conductivity (313.06 K) was 1.39 ± 0.056 S/m. The electrical conductivity (323.07 K) was 1.77 ± 0.071 S/m and the electrical conductivity (333.11 K) was 2.2 ± 0.088 S/m.

For CCOS(=O)(=O)[O-].CCn1cc[n+](C)c1 [1-ethyl-3-methylimidazolium ethyl sulfate], the electrical conductivity (288.15 K) was 0.235 ± 0.0095 S/m, the electrical conductivity (288.16 K) was 0.235 ± 0.0095 S/m and the electrical conductivity (293.12 K) was 0.302 ± 0.012 S/m. For the same compound, the electrical conductivity (298.08 K) was 0.381 ± 0.015 S/m, the electrical conductivity (303.15 K) was 0.473 ± 0.019 S/m and the electrical conductivity (308.11 K) was 0.576 ± 0.023 S/m. The electrical conductivity (313.07 K) was 0.69 ± 0.028 S/m, the electrical conductivity (323.08 K) was 0.961 ± 0.038 S/m and the electrical conductivity (333.11 K) was 1.28 ± 0.051 S/m.

Compound CCn1cc[n+](C)c1.O=S(=O)([O-])C(F)(F)F [1-ethyl-3-methylimidazolium trifluoromethanesulfonate] has an electrical conductivity (288.15 K) of 0.623 ± 0.037 S/m, an electrical conductivity (288.16 K) of 0.629 ± 0.038 S/m and an electrical conductivity (293.11 K) of 0.747 ± 0.045 S/m. The electrical conductivity (298.16 K) was 0.886 ± 0.053 S/m, the electrical conductivity (303.12 K) was 1.04 ± 0.062 S/m and the electrical conductivity (308.08 K) was 1.2 ± 0.072 S/m. The electrical conductivity (313.16 K) was 1.39 ± 0.083 S/m, the electrical conductivity (323.06 K) was 1.78 ± 0.11 S/m and the electrical conductivity (333.1 K) was 2.24 ± 0.13 S/m.

With CCCCCC[n+]1ccn(C)c1.O=S(=O)([N-]S(=O)(=O)C(F)(F)F)C(F)(F)F the electrical conductivity (288.27 K) was 0.136 S/m, the electrical conductivity (293.13 K) was 0.172 ± 0.0069 S/m and the electrical conductivity (298.1 K) was 0.216 ± 0.0087 S/m. It also gave an electrical conductivity (303.18 K) of 0.268 ± 0.011 S/m, an electrical conductivity (308.13 K) of 0.326 ± 0.013 S/m and an electrical conductivity (313.08 K) of 0.391 ± 0.016 S/m. It also gave an electrical conductivity (323.11 K) of 0.544 ± 0.022 S/m and an electrical conductivity (333.01 K) of 0.725 ± 0.029 S/m.
